Read-outs that look alike come from different tables or passages of the source.
Molecular target: human α7 nAChR (Homo sapiens, UniProt P36544)
Experiment: Automated patch-clamp electrophysiology functional assay (Assay A)
Type: cell-based
Conditions: IonFlux HT whole-cell population patch, HEK cell line stably expressing human RIC-3 and human α7, 40 μM acetylcholine
Description: The α7 nAChR positive allosteric modulator (PAM) activity of the present compounds may be tested using assays known in the art. […] The assay was performed using the IonFlux HT in a whole-cell, population patch configuration. See Golden et al. Assay Drug Dev. Technol. (2011) 9:608-619. The compounds were assessed for their ability to modulate the function of the human α7 nAChR stably expressed in a HEK cell line both in the presence, and in the absence of the natural α7 agonist acetylcholine. By performing a series of such measurements at different concentrations, the effective concentration of the α7 nAChR PAMs (EC50) was determined. See Spencer et al. Assay Drug Dev. Technol. (2012) 10:313-324.
Direct activation of α7 (agonism), and potentiation of acetylcholine-evoked α7 currents was determined as follows:
Automated Patch-Clamp Electrophysiology Functional Assay (Assay A)
Automated patch-clamp electrophysiology was performed using the IonFlux HT (Fluxion Biosciences Inc., San Francisco, Calif.) in the whole-cell, population patch configuration. Test compounds were assessed for their ability to modulate the function of the α7 nicotinic acetylcholine receptor both in the presence, and in the absence of the natural α7 agonist acetylcholine. A HEK cell line stably expressing both human RIC-3 and human α7 (PrecisION hnAChR α7/RIC-3, Eurofins Pharma, St. Charles, Mo.) was cultured in 175 cm^2 triple-layer tissue culture flasks to no more than 90% confluency in DMEM/F-12 growth media supplemented with 10% heat-inactivated fetal bovine serum, 1% non-essential amino acids, 0.625 μg/mL Puromycin, and 400 μg/mL Geneticin. Immediately prior to assay, cells were detached by first aspirating growth media, rinsing with Dulbecco's phosphate buffered saline, and then adding 10 mL of Accutase (Innovative Cell Technologies, San Diego, Calif.) to the flask and then incubating at 37° C. for 5 minutes. Detached cells were then recovered by the addition of 40 mL of CHO-serum-free media supplemented with 25 mM HEPES, and rocked gently in a 50 mL conical tube for 20 minutes prior to patch-clamp assay. […] The cell suspension was added to the cell inlet wells on an IonFlux HT population patch plate which had previously been rinsed and primed with deionized H2O. Test compounds were serially diluted in DMSO and then resuspended to the final test concentration in external recording solution, with, or without 40 μM acetylcholine added to the external recording solution; test compounds were then transferred to the lonFlux HT population patch plate. Internal recording solution (110 mM TrisPO4, 28 mM TrisBase, 0.1 mM CaCl2, 2 mM MgCl2, 11 mM EGTA, 4 mM MgATP) was added to the internal recording solution inlet wells on the IonFlux HT patch plate previously loaded with cells and test compounds, and the plate loaded into the IonFlux HT instrument. A protocol was executed on the IonFlux HT to trap the cells, break into the cells, and establish the whole-cell recording configuration; cells were voltage-clamped at a holding potential of −60 mV for the duration of the experiment, all experiments were conducted at room temperature, and the IonFlux HT injection pressure was 8 psi for solution applications. Upon establishing the whole-cell configuration, external recording solution was perfused into the recording chambers for 120 seconds and then 40 μM acetylcholine was applied for 1 second and immediately washed off with external recording solution for 60 seconds. The 40 μM acetylcholine-evoked α7 current served as the current response to which subsequent test compound effects, in the presence, or in the absence of 40 μM acetylcholine would be quantified relative to. Next, test compounds were evaluated at multiple concentrations for their ability to induce, or modulate α7 current responses; three concentrations of test compound were evaluated in ascending dose fashion per recording.

Sequence of human α7 nAChR (P36544 23-502): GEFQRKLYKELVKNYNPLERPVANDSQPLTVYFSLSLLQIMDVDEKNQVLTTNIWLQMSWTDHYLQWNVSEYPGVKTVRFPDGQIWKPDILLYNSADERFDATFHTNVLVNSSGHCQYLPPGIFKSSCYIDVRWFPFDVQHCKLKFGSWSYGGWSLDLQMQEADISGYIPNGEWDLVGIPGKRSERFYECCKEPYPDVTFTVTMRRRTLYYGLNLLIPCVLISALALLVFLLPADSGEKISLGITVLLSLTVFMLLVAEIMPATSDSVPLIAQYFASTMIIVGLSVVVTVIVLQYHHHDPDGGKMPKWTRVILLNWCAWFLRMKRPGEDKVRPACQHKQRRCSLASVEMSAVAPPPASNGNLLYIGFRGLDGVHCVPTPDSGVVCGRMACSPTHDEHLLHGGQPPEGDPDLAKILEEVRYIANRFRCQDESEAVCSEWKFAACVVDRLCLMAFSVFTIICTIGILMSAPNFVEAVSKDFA

| EC50 (read-out: α7 nAChR EC50) | EC50 (read-out: α7 nAChR Potency) | SMILES |
| --- | --- | --- |
| 3000 nM | 500 to 5000 nM | NS(=O)(=O)c1ccc([C@@H]2C[C@H]2c2nc(C3CCCC3)no2)nc1 (racemic) [Example G7, 6-[trans-2-(3-Cyclopentyl-1,2,4-oxadiazol-5-yl)cyclopropyl]pyridine-3-sulfonamide] |
| 480 nM | 100 to 500 nM | CC1(C)[C@@H](c2ccc(S(N)(=O)=O)nc2)[C@@H]1c1nnc(-c2ccc(F)cc2F)s1 (relative stereo) [Example 2, 5-{trans-3-[5-(2,4-Difluorophenyl)-1,3,4-thiadiazol-2-yl]-2,2-dimethylcyclopropyl}pyridine-2-sulfonamide] |
| 3400 nM | 500 to 5000 nM | Cc1nc(S(N)(=O)=O)ccc1[C@@H]1C[C@H]1c1nc(-c2ccccc2)no1 (relative stereo) [Example 5, 6-Methyl-5-[trans-2-(3-phenyl-1,2,4-oxadiazol-5-yl)cyclopropyl]pyridine-2-sulfonamide] |
| 990 nM | 500 to 5000 nM | CC1(C)[C@@H](c2ccc(S(N)(=O)=O)nc2)[C@@H]1c1noc(-c2ccccc2)n1 (relative stereo) [Example 11, 5-[trans-2,2-Dimethyl-3-(5-phenyl-1,2,4-oxadiazol-3-yl)cyclopropyl]pyridine-2-sulfonamide] |
| 1100 nM | 500 to 5000 nM | CC1(C)[C@@H](c2ccc(S(N)(=O)=O)nc2)[C@@H]1c1cc(C2CCCC2)no1 (relative stereo) [Example 12, 5-[trans-3-(3-Cyclopentylisoxazol-5-yl)-2,2-dimethylcyclopropyl]pyridine-2-sulfonamide] |
| 450 nM | 100 to 500 nM | CC1(C)C(c2ccc(S(N)(=O)=O)nc2)C1c1nc2ccccc2o1 (single isomer, unassigned) [Example 1, 5-[trans-3-(1,3-Benzoxazol-2-yl)-2,2-dimethylcyclopropyl]pyridine-2-sulfonamide] |
| 400 nM | 100 to 500 nM | NS(=O)(=O)c1ccc(C2CC2c2nc(-c3ccccc3)no2)cn1 (single isomer, unassigned) [Example 4, 5-[trans-2-(3-Phenyl-1,2,4-oxadiazol-5-yl)cyclopropyl]pyridine-2-sulfonamide] |
| 770 nM | 500 to 5000 nM | CC1(C)C(c2ccc(S(N)(=O)=O)nc2)C1c1cc(-c2cccc(F)c2)on1 (single isomer, unassigned) [Example 13, 5-{trans-3-[5-(3-Fluorophenyl)isoxazol-3-yl]-2,2-dimethylcyclopropyl}pyridine-2-sulfonamide] |
| 1100 nM | 500 to 5000 nM | CC1(C)C(c2ccc(S(N)(=O)=O)nc2)C1c1cc(-c2cccc(F)c2)on1 (single isomer, unassigned) [Example C13, 5-{trans-3-[5-(3-Fluorophenyl)isoxazol-3-yl]-2,2-dimethylcyclopropyl}pyridine-2-sulfonamide] |
| 380 nM | 100 to 500 nM | CC1(C)[C@@H](c2ccc(S(N)(=O)=O)nc2)[C@@H]1c1nc(-c2ccccc2)no1 [Example 3, 5-[(1S,3S)-2,2-Dimethyl-3-(3-phenyl-1,2,4-oxadiazol-5-yl)cyclopropyl]pyridine-2-sulfonamide] |
| 590 nM | 500 to 5000 nM | CC1(C)[C@@H](c2nc(-c3ccccc3)no2)[C@@H]1c1ncc(S(N)(=O)=O)s1 [Example 6, 2-[(1S,3S)-2,2-dimethyl-3-(3-phenyl-1,2,4-oxadiazol-5-yl)cyclopropyl]-1,3-thiazole-5-sulfonamide] |
| 640 nM | 500 to 5000 nM | CC1(C)[C@H](c2ccc(S(N)(=O)=O)nc2)[C@H]1c1nc(C2CCCCC2)no1 [Example 7, 5-[(1R,3R)-3-(3-Cyclohexyl-1,2,4-oxadiazol-5-yl)-2,2-dimethylcyclopropyl]pyridine-2-sulfonamide] |
| 1500 nM | 500 to 5000 nM | CC1(C)[C@@H](c2ccc(S(N)(=O)=O)nc2)[C@@H]1c1ncc(-c2ccccc2)o1 [Example 8, 5-[(1S,3S)-2,2-Dimethyl-3-(5-phenyl-1,3-oxazol-2-yl)cyclopropyl]pyridine-2-sulfonamide] |
| 720 nM | 500 to 5000 nM | CC1(C)[C@H](c2ccc(S(N)(=O)=O)nc2)[C@H]1c1ncc(C2CCCC2)s1 [Example 9, 5-[(1R,3R)-3-(5-Cyclopentyl-1,3-thiazol-2-yl)-2,2-dimethylcyclopropyl]pyridine-2-sulfonamide] |
| 480 nM | 100 to 500 nM | CC1(C)[C@@H](c2ccc(S(N)(=O)=O)cn2)[C@@H]1c1nc(C2CCCCC2)no1 [Example 10, 6-[(1S,3S)-3-(3-Cyclohexyl-1,2,4-oxadiazol-5-yl)-2,2-dimethylcyclopropyl]pyridine-3-sulfonamide] |
| 1500 nM | 500 to 5000 nM | CC1(C)[C@H](c2ccc(S(N)(=O)=O)nc2)[C@H]1c1nc(-c2ccccc2)no1 [Example A1, 5-[(1R,3R)-2,2-Dimethyl-3-(3-phenyl-1,2,4-oxadiazol-5-yl)cyclopropyl]pyridine-2-sulfonamide] |
| 1400 nM | 500 to 5000 nM | CC1(C)[C@H](c2ccc(S(N)(=O)=O)nc2)[C@H]1c1nc(-c2cncc(C(F)(F)F)c2)no1 [Example A2, 5-[(1R,3R)-2,2-Dimethyl-3-{3-[5-(trifluoromethyl)pyridin-3-yl]-1,2,4-oxadiazol-5-yl}cyclopropyl]pyridine-2-sulfonamide] |
| 2900 nM | 500 to 5000 nM | CC1(C)[C@H](c2ccc(S(N)(=O)=O)nc2)[C@H]1c1nc(C2CCCC2)no1 [Example A3, 5-[(1R,3R)-3-(3-Cyclopentyl-1,2,4-oxadiazol-5-yl)-2,2-dimethylcyclopropyl]pyridine-2-sulfonamide] |
| 3200 nM | 500 to 5000 nM | CC1(C)[C@H](c2ccc(S(N)(=O)=O)nc2)[C@H]1c1ncc(C2CCCC2)o1 [Example A4, 5-[(1R,3R)-3-(5-Cyclopentyl-1,3-oxazol-2-yl)-2,2-dimethylcyclopropyl]pyridine-2-sulfonamide] |
| 1500 nM | 500 to 5000 nM | COc1ccc(Cl)cc1-c1noc([C@@H]2[C@@H](c3ccc(S(N)(=O)=O)nc3)C2(C)C)n1 [Example A6, 5-{(1R,3R)-3-[3-(5-Chloro-2-methoxyphenyl)-1,2,4-oxadiazol-5-yl]-2,2-dimethylcyclopropyl}pyridine-2-sulfonamide] |
| 650 nM | 500 to 5000 nM | CC1(C)[C@H](c2ccc(S(N)(=O)=O)nc2)[C@H]1c1nc(-c2cccc(F)c2)no1 [Example A7, 5-{(1R,3R)-3-[3-(3-Fluorophenyl)-1,2,4-oxadiazol-5-yl]-2,2-dimethylcyclopropyl}pyridine-2-sulfonamide] |
| – | 500 to 5000 nM | CC1(C)[C@H](c2ccc(S(N)(=O)=O)nc2)[C@H]1c1nc(-c2ccc(F)cc2F)no1 [Example A8, 5-{(1R,3R)-3-[3-(2,4-Difluorophenyl)-1,2,4-oxadiazol-5-yl]-2,2-dimethylcyclopropyl}pyridine-2-sulfonamide] |
| 5000 nM | 500 to 5000 nM | CC1(C)[C@H](c2ccc(S(N)(=O)=O)nc2)[C@H]1c1nc(-c2cncc(F)c2)no1 [Example A9, 5-{(1R,3R)-3-[3-(5-Fluoropyridin-3-yl)-1,2,4-oxadiazol-5-yl]-2,2-dimethylcyclopropyl}pyridine-2-sulfonamide] |

| SMILES | EC50 (read-out: α7 nAChR EC50) | EC50 (read-out: α7 nAChR Potency) |
| --- | --- | --- |
| CC1(C)[C@@H](c2ccc(S(N)(=O)=O)nc2)[C@@H]1c1nc2ccccc2o1 (relative stereo) [Example C7, 5-[trans-3-(1,3-Benzoxazol-2-yl)-2,2-dimethylcyclopropyl]pyridine-2-sulfonamide] | 1600 nM | 500 to 5000 nM |
